From patent publication US8877748B2, “Heterocyclic fused anthraquinone derivatives, manufacturing method and pharmaceutical composition using thereof” (National Defense Medical Center, priority 2012, dated 2014)

Assays:
TK-10 = assay: NCI one-dose screening, renal cancer TK-10; type: cell-based, human; details: 10 μM
U251 = assay: NCI one-dose screening, CNS cancer U251; type: cell-based, human; details: 10 μM
NCI-H322M = assay: NCI one-dose screening, non-small cell lung cancer NCI-H322M; type: cell-based, human; details: 10 μM; Non-small cell lung cancer
UO-31 = assay: NCI one-dose screening, renal cancer UO-31; type: cell-based, human; details: 10 μM
MDA-MB-468 = assay: NCI one-dose screening, breast cancer MDA-MB-468; type: cell-based, human; details: 10 μM
UACC-62 = assay: NCI one-dose screening, melanoma UACC-62; type: cell-based, human; details: 10 μM
EKVX = assay: NCI one-dose screening, non-small cell lung cancer EKVX; type: cell-based, human; details: 10 μM
SK-MEL-28 = assay: NCI one-dose screening, melanoma SK-MEL-28; type: cell-based, human; details: 10 μM
[1] = test system: PC-3 prostate cancer cell line; assay: SRB assay cell viability, PC-3 prostate cancer cell line; type: cell-based, human; details: Homo sapiens, PC-3 prostate cancer cell line, Table II prints no unit, μM printed, read-out: SRB assay: 50% inhibition of cancer cell proliferation of sample concentration (IC50) of PC-3 prostate cancer cell line
MOLT-4 = assay: NCI one-dose screening, leukemia MOLT-4; type: cell-based, human; details: 10 μM
PRMI-8226 cell line = assay: NCI one-dose screening, leukemia PRMI-8226; type: cell-based, human; details: 10 μM
786-O = assay: NCI one-dose screening, renal cancer 786-O; type: cell-based, human; details: 10 μM
RXF, 393 = assay: NCI one-dose screening, renal cancer RXF, 393; type: cell-based, human; details: 10 μM
HS 578-T = assay: NCI one-dose screening, breast cancer HS 578-T; type: cell-based, human; details: 10 μM; Breast cancer
DU145 = assay: NCI one-dose screening, prostate cancer DU145; type: cell-based, human; details: 10 μM
M14 = assay: NCI one-dose screening, melanoma M14; type: cell-based, human; details: 10 μM
HCC-2998 = assay: NCI one-dose screening, colon cancer HCC-2998; type: cell-based, human; details: 10 μM
HOP-62 = assay: NCI one-dose screening, non-small cell lung cancer HOP-62; type: cell-based, human; details: 10 μM
NCI-H460 = assay: NCI one-dose screening, non-small cell lung cancer NCI-H460; type: cell-based, human; details: 10 μM
HCT-116 = assay: NCI one-dose screening, colon cancer HCT-116; type: cell-based, human; details: 10 μM
PC-3 = assay: NCI one-dose screening, prostate cancer PC-3; type: cell-based, human; details: 10 μM
SN12C = assay: NCI one-dose screening, renal cancer SN12C; type: cell-based, human; details: 10 μM
NCI-H522 = assay: NCI one-dose screening, non-small cell lung cancer NCI-H522; type: cell-based, human; details: 10 μM
K562cell line = assay: NCI one-dose screening, leukemia K562; type: cell-based, human; details: 10 μM
A549/ATCC = assay: NCI one-dose screening, non-small cell lung cancer A549/ATCC; type: cell-based, human; details: 10 μM
NCI-H226 = assay: NCI one-dose screening, non-small cell lung cancer NCI-H226; type: cell-based, human; details: 10 μM
T-47D = assay: NCI one-dose screening, breast cancer T-47D; type: cell-based, human; details: 10 μM
MDA-MB-231/ATCC = assay: NCI one-dose screening, breast cancer MDA-MB-231/ATCC; type: cell-based, human; details: 10 μM
SNB-75 = assay: NCI one-dose screening, CNS cancer SNB-75; type: cell-based, human; details: 10 μM
SNB-19 = assay: NCI one-dose screening, CNS cancer SNB-19; type: cell-based, human; details: 10 μM
HOP-92 = assay: NCI one-dose screening, non-small cell lung cancer HOP-92; type: cell-based, human; details: 10 μM
human tumor cell lines = assay: NCI one-dose screening, Mean / Delta / Range of growth percent over all tested cell lines; type: cell-based; details: 10 μM
MALME-3M = assay: NCI one-dose screening, melanoma MALME-3M; type: cell-based, human; details: 10 μM
CAKI-1 = assay: NCI one-dose screening, renal cancer CAKI-1; type: cell-based, human; details: 10 μM
SK-MEL-5 = assay: NCI one-dose screening, melanoma SK-MEL-5; type: cell-based, human; details: 10 μM
BT-549 = assay: NCI one-dose screening, breast cancer BT-549; type: cell-based, human; details: 10 μM
SF-268 = assay: NCI one-dose screening, CNS cancer SF-268; type: cell-based, human; details: 10 μM
MCF7 = assay: NCI one-dose screening, breast cancer MCF7; type: cell-based, human; details: 10 μM
[2] = NCI one-dose screening, renal cancer A489; type: cell-based, human; details: 10 μM
CCRF-CEM = assay: NCI screening platform one-dose single concentration screening, leukemia CCRF-CEM; type: cell-based, human; details: 10 μM
OVCAR-8 = assay: NCI one-dose screening, ovarian cancer OVCAR-8; type: cell-based, human; details: 10 μM
NCl/ADR-RES = assay: NCI one-dose screening, breast cancer NCl/ADR-RES; type: cell-based, human; details: 10 μM; listed under Ovarian cancer
HL-60, TB = assay: NCI one-dose screening, leukemia HL-60, TB; type: cell-based, human; details: 10 μM
OVCAR-3 = assay: NCI one-dose screening, ovarian cancer OVCAR-3; type: cell-based, human; details: 10 μM
NCI-H23 = assay: NCI one-dose screening, non-small cell lung cancer NCI-H23; type: cell-based, human; details: 10 μM
COLO 205 = assay: NCI one-dose screening, colon cancer COLO 205; type: cell-based, human; details: 10 μM
IGROV1 = assay: NCI one-dose screening, ovarian cancer IGROV1; type: cell-based, human; details: 10 μM
LOX IMVI = assay: NCI one-dose screening, melanoma LOX IMVI; type: cell-based, human; details: 10 μM
SF-539 = assay: NCI one-dose screening, CNS cancer SF-539; type: cell-based, human; details: 10 μM
OVCAR-4 = assay: NCI one-dose screening, ovarian cancer OVCAR-4; type: cell-based, human; details: 10 μM
UACC-257 = assay: NCI one-dose screening, melanoma UACC-257; type: cell-based, human; details: 10 μM
MDA, -MB-435 = assay: NCI one-dose screening, breast cancer MDA, -MB-435; type: cell-based, human; details: 10 μM; listed under Melanoma
SK-MEL-2 = assay: NCI one-dose screening, melanoma SK-MEL-2; type: cell-based, human; details: 10 μM
SF-295 = assay: NCI one-dose screening, CNS cancer SF-295; type: cell-based, human; details: 10 μM
KM12 = assay: NCI one-dose screening, colon cancer KM12; type: cell-based, human; details: 10 μM
SK-OV-3 = assay: NCI one-dose screening, ovarian cancer SK-OV-3; type: cell-based, human; details: 10 μM
SR = assay: NCI one-dose screening, leukemia SR; type: cell-based, human; details: 10 μM
HCT-15 = assay: NCI one-dose screening, colon cancer HCT-15; type: cell-based, human; details: 10 μM

## O=C1c2ccccc2C(=O)c2c1cc(N1CCOCC1)c1nsnc21 [C10, 4-morpholino-anthra[2,1-c][1,2,5] thiadiazol-6,11-dione]
TK-10
  Growth Percent TK-10: 131.28%
U251
  Growth Percent U251: 59.35%
NCI-H322M
  Growth Percent NCI-H322M: 98.00%
UO-31
  Growth Percent UO-31: 53.93%
MDA-MB-468
  Growth Percent MDA-MB-468: 45.59%
UACC-62
  Growth Percent UACC-62: 62.43%
EKVX
  Growth Percent EKVX: 84.52%
SK-MEL-28
  Growth Percent SK-MEL-28: 104.55%
[1]
  IC50: 3.75 µM
MOLT-4
  Growth Percent MOLT-4: 47.64%
PRMI-8226 cell line
  Growth Percent RPMI-8226: 61.17%
786-O
  Growth Percent 786-0: 109.16%
RXF, 393
  Growth Percent RXF 393: 98.14%
HS 578-T
  Growth Percent HS 578T: 88.35%
DU145
  Growth Percent DU145: 68.98%
M14
  Growth Percent M14: 75.06%
HCC-2998
  Growth Percent HCC-2998: 107.48%
HOP-62
  Growth Percent HOP-62: 60.63%
NCI-H460
  Growth Percent NCI-H460: 88.64%
HCT-116
  Growth Percent HCT-116: 18.89%
PC-3
  Growth Percent PC-3: 56.59%
SN12C
  Growth Percent SN12C: 71.73%
NCI-H522
  Growth Percent NCI-H522: 79.03%
K562cell line
  Growth Percent K562: 48.27%
A549/ATCC
  Growth Percent A549/ATCC: 100.58%
NCI-H226
  Growth Percent NCI-H226: 87.42%
T-47D
  Growth Percent T-47D: 60.04%
MDA-MB-231/ATCC
  Growth Percent MDA-MB-231/ATCC: 39.16%
SNB-75
  Growth Percent SNB-75: 51.11%
SNB-19
  Growth Percent SNB-19: 84.82%
HOP-92
  Growth Percent HOP-92: 90.59%
Human tumor cell lines; delta over all cell lines
  Growth Percent Delta: 67.45%
Human tumor cell lines; mean over all cell lines
  Growth Percent Mean: 67.97%
Human tumor cell lines; range over all cell lines
  Growth Percent Range: 130.76%
MALME-3M
  Growth Percent MALME-3M: 61.99%
CAKI-1
  Growth Percent CAKI-1: 61.73%
SK-MEL-5
  Growth Percent SK-MEL-5: 15.98%
BT-549
  Growth Percent BT-549: 93.78%
SF-268
  Growth Percent SF-268: 75.83%
MCF7
  Growth Percent MCF7: 55.12%
[2]
  Growth Percent A498: 88.30%
CCRF-CEM
  Growth Percent CCRF-CEM: 48.31%
OVCAR-8
  Growth Percent OVCAR-8: 43.29%
NCl/ADR-RES
  Growth Percent NCI/ADR-RES: 43.58%
HL-60, TB
  Growth Percent HL-60(TB): 66.73%
OVCAR-3
  Growth Percent OVCAR-3: 6.64%
NCI-H23
  Growth Percent NCI-H23: 39.65%
COLO 205
  Growth Percent COLO 205: 104.19%
IGROV1
  Growth Percent IGROV1: 54.88%
LOX IMVI
  Growth Percent LOX IMVI: 13.57%
SF-539
  Growth Percent SF-539: 88.62%
OVCAR-4
  Growth Percent OVCAR-4: 28.69%
UACC-257
  Growth Percent UACC-257: 79.36%
MDA, -MB-435
  Growth Percent MDA-MB-435: 0.52%
SK-MEL-2
  Growth Percent SK-MEL-2: 88.38%
SF-295
  Growth Percent SF-295: 95.84. Percent
KM12
  Growth Percent KM12: 83.91%
other
  melting point: 259 to 260 °C
SK-OV-3
  Growth Percent SK-OV-3: 104.65%
SR
  Growth Percent SR: 68.92%
HCT-15
  Growth Percent HCT-15: 55.97%
